How the values were obtained:
Test in all cases: Y2H Pocket Library Screen (HAB1, X-gal)
Type in all cases: cell-based
PYR1 K59R E141L = biological target: T1, PYR1 K59R E141L (Arabidopsis thaliana, UniProt O49686, E141L/K59R)
T1 construct: expressed in transfected cells; host or cells: S. cerevisiae Y190 two-hybrid reporter strain
How it was run: (§1)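 Y190 two-hybrid strains (PYR1 mutant + HAB1 prey), SD –Leu –Trp agar, single compound 100 μM, 30° C 2 d; chloroform lysis, X-gal stain scored for responsiveness.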

PYR1 K59R E94D = biological target: T2, PYR1 K59R E94D (Arabidopsis thaliana, UniProt O49686, E94D/K59R)
T2 construct: expressed in transfected cells; host or cells: S. cerevisiae Y190 yeast two-hybrid reporter strain
How it was run: as §1

PYR1 K59R V164F = biological target: T3, PYR1 K59R V164F (Arabidopsis thaliana, UniProt O49686, K59R/V164F)
T3 construct: expressed in transfected cells; host or cells: S. cerevisiae Y190
How it was run: as §1

PYR1 K59R V164T = biological target: T4, PYR1 K59R V164T (Arabidopsis thaliana, UniProt O49686, K59R/V164T)
T4 construct: expressed in transfected cells; host or cells: S. cerevisiae Y190 two-hybrid reporter strain
How it was run: as §1

PYR1 K59R V164Y = biological target: T5, PYR1 K59R V164Y (Arabidopsis thaliana, UniProt O49686, K59R/V164Y)
T5 construct: expressed in transfected cells; host or cells: S. cerevisiae Y190 two-hybrid reporter strain
T5 sequence (O49686 whole entry K59R/V164Y): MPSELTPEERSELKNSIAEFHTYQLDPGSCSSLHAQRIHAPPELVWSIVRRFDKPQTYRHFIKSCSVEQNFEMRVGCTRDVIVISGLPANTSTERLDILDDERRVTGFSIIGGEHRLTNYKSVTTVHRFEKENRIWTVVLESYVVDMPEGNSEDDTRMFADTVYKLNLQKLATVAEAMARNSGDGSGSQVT
T5 sequence (Q9CAJ0 23-511, stated change not applied, further chain): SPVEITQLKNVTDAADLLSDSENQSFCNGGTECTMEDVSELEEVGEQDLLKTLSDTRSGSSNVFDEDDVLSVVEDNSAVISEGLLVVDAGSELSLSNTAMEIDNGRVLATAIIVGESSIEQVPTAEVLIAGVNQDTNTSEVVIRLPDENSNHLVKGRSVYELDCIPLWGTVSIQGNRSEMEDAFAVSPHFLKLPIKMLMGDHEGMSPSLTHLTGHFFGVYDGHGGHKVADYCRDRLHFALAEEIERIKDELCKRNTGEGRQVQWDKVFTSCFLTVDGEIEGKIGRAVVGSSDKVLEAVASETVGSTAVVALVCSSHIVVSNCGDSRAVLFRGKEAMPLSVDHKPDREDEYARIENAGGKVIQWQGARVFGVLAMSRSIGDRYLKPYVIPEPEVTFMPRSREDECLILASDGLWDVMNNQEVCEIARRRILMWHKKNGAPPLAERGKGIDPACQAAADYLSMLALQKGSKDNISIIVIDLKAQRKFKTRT
How it was run: as §1

PYR1 K59R A160S = biological target: T6, PYR1 K59R A160S (Arabidopsis thaliana, UniProt O49686, A160S/K59R)
T6 construct: expressed in transfected cells; host or cells: S. cerevisiae Y190
T6 sequence (O49686 whole entry K59R/A160S): as the sequence (O49686 whole entry K59R/V164Y) above, with A160S, Y164V counted along it
T6 sequence (Q9CAJ0 23-511 partner): as the sequence (Q9CAJ0 23-511, stated change not applied, further chain) above
How it was run: as §1

PYR1 K59R A160V = biological target: T7, PYR1 K59R A160V (Arabidopsis thaliana, UniProt O49686, A160V/K59R)
T7 construct: expressed in transfected cells; host or cells: S. cerevisiae Y190
T7 sequence (O49686 whole entry K59R/A160V): as the sequence (O49686 whole entry K59R/V164Y) above, with A160V, Y164V counted along it
T7 sequence (Q9CAJ0 23-511 partner): as the sequence (Q9CAJ0 23-511, stated change not applied, further chain) above
How it was run: as §1

PYR1 K59R V164K = biological target: T8, PYR1 K59R V164K (Arabidopsis thaliana, UniProt O49686, K59R/V164K)
T8 construct: expressed in transfected cells; host or cells: S. cerevisiae Y190
How it was run: as §1

PYR1 K59R E141F = biological target: T9, PYR1 K59R E141F (Arabidopsis thaliana, UniProt O49686, E141F/K59R)
T9 construct: expressed in transfected cells; host or cells: S. cerevisiae Y190 two-hybrid reporter strain
How it was run: as §1

PYR1 K59R N167Q = biological target: T10, PYR1 K59R N167Q (Arabidopsis thaliana, UniProt O49686, K59R/N167Q)
T10 construct: expressed in transfected cells; host or cells: S. cerevisiae Y190 two-hybrid reporter strain
How it was run: as §1

PYR1 K59R M158G = biological target: T11, PYR1 K59R M158G (Arabidopsis thaliana, UniProt O49686, K59R/M158G)
T11 construct: expressed in transfected cells; host or cells: S. cerevisiae Y190 two-hybrid reporter strain
How it was run: as §1

PYR1 K59R T162Y = biological target: T12, PYR1 K59R T162Y (Arabidopsis thaliana, UniProt O49686, K59R/T162Y)
T12 construct: expressed in transfected cells; host or cells: S. cerevisiae Y190
How it was run: as §1

PYR1 K59R M158S = biological target: T13, PYR1 K59R M158S (Arabidopsis thaliana, UniProt O49686, K59R/M158S)
T13 construct: expressed in transfected cells; host or cells: S. cerevisiae Y190 two-hybrid reporter strain
How it was run: as §1

PYR1 K59R A160C = biological target: T14, PYR1 K59R A160C (Arabidopsis thaliana, UniProt O49686, A160C/K59R)
T14 construct: expressed in transfected cells; host or cells: S. cerevisiae Y190
T14 sequence (O49686 whole entry K59R/A160C): as the sequence (O49686 whole entry K59R/V164Y) above, with A160C, Y164V counted along it
T14 sequence (Q9CAJ0 23-511 partner): as the sequence (Q9CAJ0 23-511, stated change not applied, further chain) above
How it was run: as §1

PYR1 K59R A160I = biological target: T15, PYR1 K59R A160I (Arabidopsis thaliana, UniProt O49686, A160I/K59R)
T15 construct: expressed in transfected cells; host or cells: S. cerevisiae Y190
How it was run: as §1

PYR1 K59R N167D = biological target: T16, PYR1 K59R N167D (Arabidopsis thaliana, UniProt O49686, K59R/N167D)
T16 construct: expressed in transfected cells; host or cells: S. cerevisiae Y190 two-hybrid reporter strain
How it was run: as §1

PYR1 K59R A160N = biological target: T17, PYR1 K59R A160N (Arabidopsis thaliana, UniProt O49686, A160N/K59R)
T17 construct: expressed in transfected cells; host or cells: S. cerevisiae Y190
T17 sequence (O49686 whole entry K59R/A160N): as the sequence (O49686 whole entry K59R/V164Y) above, with A160N, Y164V counted along it
T17 sequence (Q9CAJ0 23-511 partner): as the sequence (Q9CAJ0 23-511, stated change not applied, further chain) above
How it was run: as §1

PYR1 K59R M158A = biological target: T18, PYR1 K59R M158A (Arabidopsis thaliana, UniProt O49686, K59R/M158A)
T18 construct: expressed in transfected cells; host or cells: S. cerevisiae Y190 two-hybrid reporter strain
How it was run: as §1

PYR1 K59R V164A = biological target: T19, PYR1 K59R V164A (Arabidopsis thaliana, UniProt O49686, K59R/V164A)
T19 construct: expressed in transfected cells; host or cells: S. cerevisiae Y190
T19 sequence (O49686 whole entry K59R/V164A): as the sequence (O49686 whole entry K59R/V164Y) above, with Y164A counted along it
T19 sequence (Q9CAJ0 23-511 partner): as the sequence (Q9CAJ0 23-511, stated change not applied, further chain) above
How it was run: as §1

PYR1 K59R E141Q = biological target: T20, PYR1 K59R E141Q (Arabidopsis thaliana, UniProt O49686, E141Q/K59R)
T20 construct: expressed in transfected cells; host or cells: S. cerevisiae Y190 two-hybrid reporter strain
How it was run: as §1

PYR1 K59R V164N = biological target: T21, PYR1 K59R V164N (Arabidopsis thaliana, UniProt O49686, K59R/V164N)
T21 construct: expressed in transfected cells; host or cells: S. cerevisiae Y190 two-hybrid reporter strain
How it was run: as §1

PYR1 K59R L87P = biological target: T22, PYR1 K59R L87P (Arabidopsis thaliana, UniProt O49686, K59R/L87P)
T22 construct: expressed in transfected cells; host or cells: S. cerevisiae Y190 yeast two-hybrid reporter strain
How it was run: as §1

PYR1 K59R V164G = biological target: T23, PYR1 K59R V164G (Arabidopsis thaliana, UniProt O49686, K59R/V164G)
T23 construct: expressed in transfected cells; host or cells: S. cerevisiae Y190
How it was run: as §1

PYR1 K59R M158T = biological target: T24, PYR1 K59R M158T (Arabidopsis thaliana, UniProt O49686, K59R/M158T)
T24 construct: expressed in transfected cells; host or cells: S. cerevisiae Y190 two-hybrid reporter strain
How it was run: as §1

PYR1 K59R F108N = biological target: T25, PYR1 K59R F108N (Arabidopsis thaliana, UniProt O49686, F108N/K59R)
T25 construct: expressed in transfected cells; host or cells: S. cerevisiae Y190 yeast two-hybrid reporter strain
How it was run: as §1

PYR1 K59R A89W = biological target: T26, PYR1 K59R A89W (Arabidopsis thaliana, UniProt O49686, A89W/K59R)
T26 construct: expressed in transfected cells; host or cells: S. cerevisiae Y190 yeast two-hybrid reporter strain
T26 sequence (O49686 whole entry K59R/A89W): as the sequence (O49686 whole entry K59R/V164Y) above, with A89W, Y164V counted along it
T26 sequence (Q9CAJ0 23-511, further chain): as the sequence (Q9CAJ0 23-511, stated change not applied, further chain) above
How it was run: as §1

PYR1 K59R F108Q = biological target: T27, PYR1 K59R F108Q (Arabidopsis thaliana, UniProt O49686, F108Q/K59R)
T27 construct: expressed in transfected cells; host or cells: S. cerevisiae Y190 yeast two-hybrid reporter strain
How it was run: as §1

PYR1 K59R F108C = biological target: T28, PYR1 K59R F108C (Arabidopsis thaliana, UniProt O49686, F108C/K59R)
T28 construct: expressed in transfected cells; host or cells: S. cerevisiae Y190 yeast two-hybrid reporter strain
How it was run: as §1

Measured: Threshold

N#Cc1c(Cl)cccc1Cl [Dichlobenil, dichlobenil]
not listed: PYR1 K59R F108N | PYR1 K59R A89W | PYR1 K59R F108Q | PYR1 K59R F108C
100 µM: all other assays above

C#CCOc1ccc(CCNC(=O)C(OCC#C)c2ccc(Cl)cc2)cc1OC (stereo not shown) [Mandipropamid, mandipropamid]
100 µM: PYR1 K59R F108N | PYR1 K59R A89W | PYR1 K59R F108Q | PYR1 K59R F108C
